# Data: patent publication US5573772A, “Methods for protecting tissues and organs from ischemic damage” (priority 1994, dated 1996)
# System: isolated rabbit hearts
# Assay: Infarct size after 30 min coronary branch occlusion and 120 min reperfusion in isolated rabbit hearts, Example 1
# Design: species or system rabbit (New Zealand white)
# Details: for Infarct size compared with control group: ADO 10 uM or APNEA 50 nM, p<0.01
# Experimental: These solutions were then diluted in Krebs buffer to the final concentration just before the experiments started. New Zealand white rabbits of either sex, between 1.4-2.4 kg, were anesthetized with intravenous sodium pentobarbital (30 mg/kg). The neck was opened and a tracheotomy was performed. The rabbits were ventilated with 100% oxygen via a positive pressure respirator (MD industries, Mobile, Ala.). Ventilation rate was 30-35 breaths per minute, and tidal volume was approximately 15 ml. A left thoracotomy was performed in the fourth intercostal space and pericardium was opened to expose the heart. A 2-0 silk suture with an RB taper needle was passed around a branch of the left coronary artery, and the end of the silk were threaded through a small vinyl tube to form a snare. The heads were quickly excised and mounted on a Langendorff apparatus and perfused at constant pressure with Krebs buffer containing (in mM) 118.5 NaCl, 4.7 KCl, 1.2 MgSO4, 1.2 K2 PO4, 24.3 NaHCO3, 2.5 CaCl2 and 10 glucose. […] The temperature of the perfusate was maintained at 37° C. The perfusion pressure was kept at 75 mm Hg. Pacing electrodes were placed on the right atrium and all hearts were paced at 200 beats/minute with pulses of 5 volts and 4 msec duration to keep the heart rate constant. A fluid-filled latex balloon connected to a transducer via PE240 tubing was inserted into the left ventricle. Balloon volume was adjusted to set the left ventricular diastolic pressure at 10 mm Hg at the beginning of the experiment. Total coronary artery flow was measured by timed collection of buffer from the chamber into a graduated cylinder. Regional ischemia was effected by pulling the snare tight and clamping the tube with a hemostat. Global ischemia was performed by clamping the inflow tubing of the Langendorff apparatus. Reperfusion was achieved by releasing the restriction. All hearts were allowed to equilibrate for 20 minutes before the experiments were started. Heart rate (HR), coronary flow (CF) and left ventricular developed pressure (LVDP) were recorded at the point just before and at the end of each treatment with the pacing momentarily turned off. […] The hearts were removed from the Langendorff apparatus, weighed and then frozen. The hearts were cut into 2 mm transverse slices. The slices were thawed and incubated in 1% triphenyl tetrazolium chloride (TTC) in pH 7.4 buffer for 20 minutes at 37° C. TTC reacts with NADH and dehydrogenase enzymes and stains all tissue still having them to a deep red color. […] After staining, the area of infarcted tissue (TTC negative tissue) and the risk zone (area lacking fluorescence under ultraviolet light) in each slice were traced. The area of infarct and risk zone were determined by planimetry of the tracing. The volume of infarcted myocardium and myocardium at risk was then calculated by multiplying the planimetered areas by the slice thickness. The animals were divided into 10 groups. The hearts in all groups were subjected to 30 minutes of coronary branch occlusion followed by 120 minutes of reperfusion. Control group (CON, n=10) only experienced the above-mentioned 30 minutes of regional ischemia while the preconditioned group (PC, n=12) received an additional 5 minutes of global ischemia plus 10 minutes of reperfusion prior to the 30 minute occlusion. In the adenosine group (ADO, n=6) and the APNEA group (APNEA, n=5), the hearts were exposed to 10 uM adenosine and 50 nM APNEA respectively, for 5 minutes as a substitute for ischemic preconditioning. The drug was allowed to washout for 10 minutes before the 30 minute ischemia was started. In groups receiving SPT, the blocker was included in the perfusate for 15 minutes at 100 uM starting 5 minutes before the exposure of ADO (ADO-SPT group, n=6) or APNEA (APNEA-SPT group, n=5) or 5 minutes before and after 5 minutes of preconditioning ischemia (PC-SPT group, n=5). […] All results are expressed as group mean±SEM. […]
smiles,measurement,setting,value
"Nc1ncnc2c1ncn2[C@@H]1O[C@H](CO)[C@@H](O)[C@H]1O [ADO, Adenosine]",Infarct size compared with control group,,significantly smaller than those in the control group
same,Infarct size (area at risk infarcted),"ADO 10 uM, 5 minutes, control 29.4±2.9%, PC 10.8±2.8%",11.4±2.1%
"CCCn1c(=O)c2[nH]c(C3CCCC3)nc2n(CCC)c1=O [DPCPX, 8-cyclopentyl-1,3-dipropylxanthine]",Infarct size (area at risk infarcted),DPCPX 200 nM + ADO 10 uM (ADO-DPCPX),14.4±7.0%
same,Infarct size (area at risk infarcted),DPCPX 200 nM + APNEA 50 nM (APNEA-DPCPX),8.7±1.7%
same,Infarct size (area at risk infarcted),DPCPX 200 nM + PC (PC-DPCPX),15.6±7.8%
"Cn1c(=O)c2[nH]c(-c3ccc(S(=O)(=O)O)cc3)nc2n(C)c1=O [SPT, 8-(p-Sulfophenyl)-theophylline]",Infarct size (area at risk infarcted),SPT 100 uM + ADO 10 uM (ADO-SPT),29.8±3.4%
same,Infarct size (area at risk infarcted),SPT 100 uM + APNEA 50 nM (APNEA-SPT),32.8±3.3%
same,Infarct size (area at risk infarcted),SPT 100 uM + PC (PC-SPT),33.8±2.4%
"Nc1ccc(CCNc2ncnc3c2ncn3[C@@H]2O[C@H](CO)[C@@H](O)[C@H]2O)cc1 [APNEA, N^6-(2-(4-aminophenyl)ethyl) adenosine]",Infarct size compared with control group,,significantly smaller than those in the control group
same,Infarct size (area at risk infarcted),"APNEA 50 nM, 5 minutes, control 29.4±2.9%",11.9±2.3%
